Measurements reported in patent US4735959A, “Carboxylic acid amides and pharmaceutical compositions containing them” (Dr. Karl Thomae GmbH, priority 1981, dated 1988).
Read-outs that look alike come from different tables or passages of the source.

Tested on: blood-sugar
Assay: Blood-sugar lowering activity in starved female rats after oral administration
Type: in vivo
Details: for change in vivo at 1 mg/kg / change in vivo at 5 mg/kg / change in vivo at 0.6 mg/kg / change in vivo at 10 mg/kg: Rattus norvegicus, po, read-out: Blood-sugar lowering activity, percent as compared with the controls; for change in vivo at 0.6 mg/kg: 0.6 mg/kg orally; for change in vivo at 10 mg/kg: 10 mg/kg orally (footnote *)
Experimental: The blood-sugar lowering activity of the test compounds was determined in home-bred female rats with weights of from 180 to 220 grams. Twenty-four hours before starting the test the animals were starved. Before the test the compounds were suspended in 1.5% methyl cellulose and administered to the animals by means of an esophageal tube.
Blood was taken from the retroorbital plexus vein before administration of the test compounds as well as each of 1, 2, 3, and 4 hours after administration. Fifty microliters of each sample were deproteinized with 0.5 ml of 0.33N perchloric acid and centrifuged. The glucose content was determined in the supernatant according to the Hexokinase method by means of an analysis photometer. The statistical evalulation was performed with the t-test according to Student with p=0.05.

[1] = 1 mg/kg orally, 3 hours, n.s. = not statistically significant
[2] = 1 mg/kg orally, 4 hours, n.s. = not statistically significant
[3] = 1 mg/kg orally, 1 hour, n.s. = not statistically significant
[4] = 1 mg/kg orally, 2 hours, n.s. = not statistically significant
[5] = 5 mg/kg orally, 1 hour, n.s. = not statistically significant
[6] = 5 mg/kg orally, 2 hours, n.s. = not statistically significant
[7] = 5 mg/kg orally, 3 hours, n.s. = not statistically significant
[8] = 5 mg/kg orally, 4 hours, n.s. = not statistically significant
[9] = 3 hours, n.s. = not statistically significant
[10] = 4 hours, n.s. = not statistically significant

In the case of `CC1CCCN(c2ccccc2C(NC(=O)Cc2ccc(C(=O)O)cc2)c2ccccc2)C1` (stereo not drawn) [AR, 4-[(2-(3-Methyl-piperidino)-α-phenyl-benzyl)-aminocarbonylmethyl]-benzoic acid], the “Blood-sugar lowering activity, percent as compared with the controls” value (shortened to “Blood-sugar lowering activity, percent”) [1] is reported as “n.s”, the “Blood-sugar lowering activity, percent” value [2] is reported as “n.s” and the change in vivo at 1 mg/kg [3] is reported as -13%. For the same compound, the change in vivo at 1 mg/kg [4] was -9%, the change in vivo at 5 mg/kg [5] was -35% and the change in vivo at 5 mg/kg [6] was -30%. The change in vivo at 5 mg/kg [7] was -29% and the change in vivo at 5 mg/kg [8] was -31%.
Work on `CCCC(NC(=O)Cc1ccc(C(=O)OCC(O)CO)cc1)c1ccccc1N1CCCCC1` (stereo not shown) [U, 4-[(1-(2-Piperidino-phenyl)-1-butyl)-aminocarbonylmethyl]-benzoic acid 2,3-dihydroxy-propyl ester] yielded a change in vivo at 1 mg/kg [3] of -39%, a change in vivo at 1 mg/kg [4] of -35% and a change in vivo at 1 mg/kg [1] of -29%. For the same compound, the change in vivo at 1 mg/kg [2] was -24%, the change in vivo at 5 mg/kg [5] was -43% and the change in vivo at 5 mg/kg [6] was -43%. It also gave a change in vivo at 5 mg/kg [7] of -49% and a change in vivo at 5 mg/kg [8] of -45%.
`CCCC(NC(=O)Cc1ccc(C(=O)O)cc1)c1ccc(OC)cc1N1CCCCC1` (stereo not shown) [W, 4-[(1-(4-Methoxy-2-piperidino-phenyl)-1-butyl)-aminocarbonylmethyl]-benzoic acid] was tested, and the “Blood-sugar lowering activity, percent” value [2] was “n.s”, the change in vivo at 1 mg/kg [3] was -36% and the change in vivo at 1 mg/kg [4] was -25%. It also gave a change in vivo at 1 mg/kg [1] of -16%, a change in vivo at 5 mg/kg [5] of -46% and a change in vivo at 5 mg/kg [6] of -45%. The change in vivo at 5 mg/kg [7] was -39% and the change in vivo at 5 mg/kg [8] was -37%.
`N#CC(NC(=O)Cc1ccc(C(=O)O)cc1)c1ccccc1N1CCCCC1` (stereo not drawn) [Q, 4-[(α-Cyano-2-piperidino-benzyl)-aminocarbonylmethyl]-benzoic acid] was tested, and the “Blood-sugar lowering activity, percent” value [7] was “n.s”, the “Blood-sugar lowering activity, percent” value [8] was “n.s” and the change in vivo at 5 mg/kg [5] was -28%. It also gave a change in vivo at 5 mg/kg [6] of -13%.
With `O=C(Cc1ccc(C(=O)O)cc1)N/C(=C\Cc1ccccc1)c1ccccc1N1CCCCC1` [F, (Z)-4-[(3-Phenyl-1-(2-piperidino-phenyl)-1-propen-1-yl)-aminocarbonylmethyl]-benzoic acid] the change in vivo at 5 mg/kg [5] was -43%, the change in vivo at 5 mg/kg [6] was -42% and the change in vivo at 5 mg/kg [7] was -39%. It also gave a change in vivo at 5 mg/kg [8] of -32%.
Compound `O=C(Cc1ccc(C(=O)O)cc1)NC(c1ccccc1)c1ccccc1N1CCCCC1` (single isomer, unassigned; (-)) [AW, (-)-4-[(2-Piperidino-benzhydryl)-aminocarbonylmethyl]-benzoic acid] has a change in vivo at 0.6 mg/kg (1 hour) of -40%, a change in vivo at 0.6 mg/kg (2 hours) of -34% and a change in vivo at 0.6 mg/kg (3 hours) of -31%. It also gave a change in vivo at 0.6 mg/kg (4 hours) of -26%.
`CCCC(NC(=O)Cc1ccc(C(=O)O)cc1)c1ccccc1N1CCCC1` (stereo not shown) [H, 4-[(1-(2-Pyrrolidino-phenyl)-1-butyl)-aminocarbonylmethyl]-benzoic acid] was tested, and the change in vivo at 5 mg/kg [5] was -50%, the change in vivo at 5 mg/kg [6] was -46% and the change in vivo at 5 mg/kg [7] was -44%. For the same compound, the change in vivo at 5 mg/kg [8] was -45%.
Compound `O=C(Cc1ccc(C(=O)O)cc1)NC(c1ccccc1)c1c(Cl)cccc1N1CCCCC1` (stereo not drawn) [AJ, 4-[(6-Chloro-α-phenyl-2-piperidino-benzyl)-aminocarbonylmethyl]-benzoic acid] has a change in vivo at 1 mg/kg [3] of -35%, a change in vivo at 1 mg/kg [4] of -34% and a change in vivo at 1 mg/kg [1] of -28%. The change in vivo at 1 mg/kg [2] was -20%, the change in vivo at 5 mg/kg [5] was -44% and the change in vivo at 5 mg/kg [6] was -40%. For the same compound, the change in vivo at 5 mg/kg [7] was -39% and the change in vivo at 5 mg/kg [8] was -40%.
For `Cc1cccc(N2CCCCC2)c1C(NC(=O)Cc1ccc(C(=O)O)cc1)c1ccccc1` (stereo not drawn) [AN, 4-[(6-Methyl-α-phenyl-2-piperidino-benzyl)-aminocarbonylmethyl]-benzoic acid], the “Blood-sugar lowering activity, percent” value [1] was “n.s”, the “Blood-sugar lowering activity, percent” value [2] was “n.s” and the change in vivo at 1 mg/kg [3] was -27%. It also gave a change in vivo at 1 mg/kg [4] of -24%, a change in vivo at 5 mg/kg [5] of -39% and a change in vivo at 5 mg/kg [6] of -35%. The change in vivo at 5 mg/kg [7] was -27% and the change in vivo at 5 mg/kg [8] was -26%.
`O=C(O)CCc1ccc(CC(=O)NC(c2ccccc2)c2ccccc2N2CCCCC2)cc1` (stereo not drawn) [AL, 3-{4-[(α-Phenyl-2-piperidino-benzyl)-aminocarbonylmethyl]-phenyl}-propionic acid] gave a change in vivo at 1 mg/kg [3] of -40%, a change in vivo at 1 mg/kg [4] of -31% and a change in vivo at 1 mg/kg [1] of -23%. It also gave a change in vivo at 1 mg/kg [2] of -12%, a change in vivo at 10 mg/kg (1 hour) of -43% and a change in vivo at 10 mg/kg (2 hours) of -41%. For the same compound, the change in vivo at 10 mg/kg [9] was -38% and the change in vivo at 10 mg/kg [10] was -34%.
With `CCCC(NC(=O)Cc1ccc(C(=O)OCC)cc1)c1ccccc1N1CCCCC1` (single isomer, unassigned; (+)) [L, (+)-4-[(1-(2-Piperidino-phenyl)-1-butyl)-aminocarbonylmethyl]-benzoic acid ethyl ester] the “Blood-sugar lowering activity, percent” value [2] was “n.s”, the change in vivo at 1 mg/kg [3] was -14% and the change in vivo at 1 mg/kg [4] was -18%. For the same compound, the change in vivo at 1 mg/kg [1] was -14%, the change in vivo at 5 mg/kg [5] was -42% and the change in vivo at 5 mg/kg [6] was -45%. The change in vivo at 5 mg/kg [7] was -31% and the change in vivo at 5 mg/kg [8] was -22%.
Compound `C=C(NC(=O)Cc1ccc(C(=O)O)cc1)c1ccccc1N1CCCCCCCC1` [X, 4-[(1-(2-Octahydroazonino-phenyl)-1-ethenyl)-aminocarbonylmethyl]-benzoicacid] has a change in vivo at 10 mg/kg (1 hour) of -34%, a change in vivo at 10 mg/kg (2 hours) of -21% and a change in vivo at 10 mg/kg [9] of -17%. The change in vivo at 10 mg/kg [10] was -14%.
In the case of `O=Cc1ccc(CC(=O)NC(c2ccccc2)c2ccccc2N2CCCCC2)cc1` (stereo not drawn) [AP, 4-[(α-Phenyl-2-piperidino-benzyl)-aminocarbonylmethyl]-benzaldehyde], the change in vivo at 1 mg/kg [3] is reported as -26%, the change in vivo at 1 mg/kg [4] is reported as -28% and the change in vivo at 1 mg/kg [1] is reported as -22%. The change in vivo at 1 mg/kg [2] was -17%.
For `CC/C=C(\NC(=O)Cc1ccc(C(=O)OCC)cc1)c1ccccc1N1CCCCC1` [B, (Z)-4-[(1-(2-Piperidino-phenyl)-1-buten-1-yl)-aminocarbonylmethyl]-benzoic acid ethyl ester], the change in vivo at 1 mg/kg [3] was -39%, the change in vivo at 1 mg/kg [4] was -19% and the change in vivo at 1 mg/kg [1] was -26%. The change in vivo at 1 mg/kg [2] was -30%, the change in vivo at 5 mg/kg [5] was -44% and the change in vivo at 5 mg/kg [6] was -39%. The change in vivo at 5 mg/kg [7] was -26% and the change in vivo at 5 mg/kg [8] was -35%.
`O=C(Cc1ccc(C(=O)O)cc1)NC(c1cccc(Cl)c1)c1ccccc1N1CCCCC1` (stereo not drawn) [AF, 4-[(α-(3-Chloro-phenyl)-2-piperidino-benzyl)-aminocarbonylmethyl]-benzoic acid] was tested, and the “Blood-sugar lowering activity, percent” value [1] was “n.s”, the “Blood-sugar lowering activity, percent” value [2] was “n.s” and the change in vivo at 1 mg/kg [3] was -17%. It also gave a change in vivo at 1 mg/kg [4] of -19%, a change in vivo at 5 mg/kg [5] of -43% and a change in vivo at 5 mg/kg [6] of -39%. It also gave a change in vivo at 5 mg/kg [7] of -30% and a change in vivo at 5 mg/kg [8] of -26%.
With `CCCCCC(NC(=O)Cc1ccc(C(=O)O)cc1)c1ccccc1N1CCCCC1` (stereo not shown) [N, 4-[(1-(2-Piperidino-phenyl)-1-hexyl)-aminocarbonylmethyl]-benzoic acid] the change in vivo at 5 mg/kg [5] was -42%, the change in vivo at 5 mg/kg [6] was -42% and the change in vivo at 5 mg/kg [7] was -37%. The change in vivo at 5 mg/kg [8] was -33%.
Work on `CC/C=C(\NC(=O)Cc1ccc(C(=O)O)cc1)c1ccccc1N1CCCC(C)(C)C1` [G, (Z)-4-[(1-(2-(3,3-Dimethyl-piperidino)-phenyl)-1-buten-1-yl)-aminocarbonylmethyl]-benzoic acid] yielded a change in vivo at 1 mg/kg [3] of -44%, a change in vivo at 1 mg/kg [4] of -42% and a change in vivo at 1 mg/kg [1] of -37%. For the same compound, the change in vivo at 1 mg/kg [2] was -31%.
For `CCCC(NC(=O)Cc1ccc(C(=O)O)cc1)c1ccccc1N1CCCCC1` (single isomer, unassigned; (+)) [K, (+)-4-[(1-(2-Piperidino-phenyl)-1-butyl)-aminocarbonylmethyl]-benzoic acid], the change in vivo at 1 mg/kg [3] was -41%, the change in vivo at 1 mg/kg [4] was -43% and the change in vivo at 1 mg/kg [1] was -38%. The change in vivo at 1 mg/kg [2] was -31%.
Work on `CC(NC(=O)Cc1ccc(C(=O)O)cc1)c1ccccc1N1CCCCC1` (single isomer, unassigned; (+)) [AU, (+)-4-[(1-(2-Piperidino-phenyl)-1-ethyl)-aminocarbonylmethyl]-benzoic acid] yielded a change in vivo at 1 mg/kg [3] of -41%, a change in vivo at 1 mg/kg [4] of -22% and a change in vivo at 1 mg/kg [1] of -17%. For the same compound, the change in vivo at 1 mg/kg [2] was -15%.
